Laboratory results from patent US20220298146A1, “HETEROCYCLIC DERIVATIVE AND USE THEREOF” (Transthera Sciences (Nanjing), Inc., priority 2019, published 2022).

Key:
Tyro-3 (h) = target: T1, Tyro-3 (h) (Homo sapiens, UniProt Q06418); experiment: Enzymatic activity assay, Tyro-3 (h) kinase, [γ-33P]-ATP; format: biochemical; details: 10 μM [γ-33P]-ATP, 40 min, room temperature; read-out: Inhibitory Activity on Tyro-3 (h), IC50
T1 construct: purchased
T1 sequence (Q06418 41-890): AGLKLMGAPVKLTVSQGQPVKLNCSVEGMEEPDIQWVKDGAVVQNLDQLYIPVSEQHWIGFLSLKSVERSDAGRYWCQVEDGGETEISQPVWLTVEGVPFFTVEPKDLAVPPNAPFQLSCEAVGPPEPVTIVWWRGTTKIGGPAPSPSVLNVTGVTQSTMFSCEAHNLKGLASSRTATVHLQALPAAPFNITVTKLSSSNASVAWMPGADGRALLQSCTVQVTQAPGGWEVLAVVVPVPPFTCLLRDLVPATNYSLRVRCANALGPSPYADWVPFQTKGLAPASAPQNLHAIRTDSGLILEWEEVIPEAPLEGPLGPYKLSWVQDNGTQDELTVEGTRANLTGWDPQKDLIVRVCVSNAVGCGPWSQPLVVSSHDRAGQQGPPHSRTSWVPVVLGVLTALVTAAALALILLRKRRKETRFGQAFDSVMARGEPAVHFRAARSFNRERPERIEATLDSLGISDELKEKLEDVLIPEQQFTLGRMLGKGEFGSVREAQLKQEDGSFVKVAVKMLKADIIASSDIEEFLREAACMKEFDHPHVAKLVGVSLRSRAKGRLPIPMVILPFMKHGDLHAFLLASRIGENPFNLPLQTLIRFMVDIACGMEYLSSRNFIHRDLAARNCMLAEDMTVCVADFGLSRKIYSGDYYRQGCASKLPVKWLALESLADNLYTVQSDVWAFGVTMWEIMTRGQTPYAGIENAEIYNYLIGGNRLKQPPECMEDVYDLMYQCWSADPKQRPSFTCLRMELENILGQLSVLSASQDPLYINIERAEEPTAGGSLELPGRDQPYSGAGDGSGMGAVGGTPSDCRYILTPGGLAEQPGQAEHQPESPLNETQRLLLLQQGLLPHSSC
Protocol: (§1) Test samples: the compounds of the present invention, having structures and preparation methods shown above.
(1) Preparation of Compound Stock Solutions
(§2) Compounds were each dissolved in 100% DMSO to prepare stock solutions with a maximum concentration of 500 μM.
(2) Preparation of Compound Working Solutions
(§3) The compound stock solutions were diluted to final concentrations of 500 μM, 150 μM, 50 μM, 15 μM, 5 μM, 1.5 μM, 0.5 μM, 0.15 μM and 0.05 μM to prepare compound working solutions (50×).
(3) Preparation of different enzymatic reaction solutions
Tyro3 (h) enzyme was dissolved in a mixture of 8 mM MOPS (pH 7.0), 0.2 mM EDTA, 1 mM MnCl2 and 250 μM KVEKIGEGTYGVVYK to prepare an enzyme solution with a final concentration of 38 nM. An Mg/ATP mixture of 10 mM magnesium acetate and 10 μM [γ-^33P]-ATP was used to activate the enzymatic reaction.
(§4) The compound working solutions were added to a 384-well plate, with final concentrations of 10000 nM, 3000 nM, 1000 nM, 300 nM, 100 nM, 30 nM, 10 nM, 3 nM and 1 nM, respectively, and then different enzymatic reaction solutions prepared according to the above conditions were added. The reaction solutions were incubated at room temperature for 40 min, and then 0.5% phosphoric acid solutions were added to terminate the reaction. 10 μL of the reaction solution was added dropwise to P30 filter paper which was washed 4 times with a 0.425% phosphoric acid solution and once with methanol and then placed in a scintillation counter for detection. Gray analysis was performed on the results with Image J software, and IC50 values were calculated with GraphPad 5.0 software.

LCK (h) = target: T2, LCK (h) (Homo sapiens, UniProt P06239); experiment: Enzymatic activity assay, LCK (h) kinase, [γ-33P]-ATP; format: biochemical; details: 10 μM [γ-33P]-ATP, 40 min, room temperature; read-out: Inhibitory Activity on LCK (h) kinase, IC50
T2 construct: purchased
Protocol: as §1
Preparation of Compound Stock Solutions:
as §2
Preparation of Compound Working Solutions:
as §3
Preparation of Different Enzymatic Reaction Solutions:
LCK (h) enzyme was dissolved in a mixture of 50 mM Tris (pH 7.5), 0.1 mM EGTA, 0.1 mM Na3VO4 and 250 μM KVEKIGEGTYGVVYK to prepare an enzyme solution with a final concentration of 45 nM. An Mg/ATP mixture of 10 mM magnesium acetate and 10 μM [γ-^33P]-ATP was used to activate the enzymatic reaction.
as §4

T2 sequence (P06239 whole entry): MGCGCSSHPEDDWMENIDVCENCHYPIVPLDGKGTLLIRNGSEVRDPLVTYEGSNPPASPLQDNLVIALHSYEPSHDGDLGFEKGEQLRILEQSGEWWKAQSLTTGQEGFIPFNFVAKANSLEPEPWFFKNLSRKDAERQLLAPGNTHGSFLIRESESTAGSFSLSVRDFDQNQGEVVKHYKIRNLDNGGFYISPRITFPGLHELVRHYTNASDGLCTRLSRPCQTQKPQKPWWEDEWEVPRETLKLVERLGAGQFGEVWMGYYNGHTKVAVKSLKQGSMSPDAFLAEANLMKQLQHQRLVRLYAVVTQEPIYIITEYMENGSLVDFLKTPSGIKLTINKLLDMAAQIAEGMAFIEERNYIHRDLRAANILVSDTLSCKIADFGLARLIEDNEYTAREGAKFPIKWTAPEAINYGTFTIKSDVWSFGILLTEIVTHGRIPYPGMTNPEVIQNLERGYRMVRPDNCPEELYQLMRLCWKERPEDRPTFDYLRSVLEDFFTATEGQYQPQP

| Compound | IC50 (Tyro-3 (h)) | IC50 (LCK (h)) |
| --- | --- | --- |
| CC(C)n1cc(-c2ccc(F)cc2)c(=O)c(C(=O)Nc2ccc(Oc3ccnc(N)c3Cl)nc2)n1 [Compound 13, N-(6-((2-amino-3-chloropyridin-4-yl)oxy)pyridin-3-yl)-5-(4-fluorophenyl)-1-isopropyl-4-oxo-1,4-dihydropyridazine-3-carboxamide] | 39 nM | 132 nM |
| Nc1nccc(Oc2ccc(NC(=O)c3nn(C4CC4)cc(-c4ccc(F)cc4)c3=O)nc2)c1Cl [Compound 17, N-(5-((2-amino-3-chloropyridin-4-yl)oxy)pyridin-2-yl)-1-cyclopropyl-5-(4-fluorophenyl)-4-oxo-1,4-dihydropyridazine-3-carboxamide] | 31 nM | 24 nM |
| C=CCn1cc(-c2ccc(F)cc2)c(=O)c(C(=O)Nc2ccc(Oc3ccnc(N)c3Cl)cn2)n1 [Compound 35, 1-allyl-N-(5-((2-amino-3-chloropyridin-4-yl)oxy)pyridin-2-yl)-5-(4-fluorophenyl)-4-oxo-1,4-dihydropyridazine-3-carboxamide] | 24 nM | 20 nM |
| C=CCn1cc(-c2ccc(F)cc2)c(=O)c(C(=O)Nc2ccc(Oc3ccnc(N)c3Cl)nc2)n1 [Compound 39, 1-allyl-N-(6-((2-amino-3-chloropyridin-4-yl)oxy)pyridin-3-yl)-5-(4-fluorophenyl)-4-oxo-1,4-dihydropyridazine-3-carboxamide] | 28 nM | 95 nM |

The remaining compounds from weak to strong by IC50 (Tyro-3 (h)), led by results:

| IC50 (Tyro-3 (h)) | IC50 (LCK (h)) | Compound |
| --- | --- | --- |
| 73 nM | 104 nM | Nc1nccc(Oc2ccc(NC(=O)c3nn(C4CC4)cc(-c4ccc(F)cc4)c3=O)cn2)c1Cl [Compound 19, N-(6-((2-amino-3-chloropyridin-4-yl)oxy)pyridin-3-yl)-1-cyclopropyl-5-(4-fluorophenyl)-4-oxo-1,4-dihydropyridazine-3-carboxamide] |
| 54 nM | 20 nM | CC(C)n1cc(-c2ccc(F)cc2)c(=O)c(C(=O)Nc2ccc(Oc3ccnc(N)c3Cl)cn2)n1 [Compound 11, N-(5-((2-amino-3-chloropyridin-4-yl)oxy)pyridin-2-yl)-5-(4-fluorophenyl)-1-isopropyl-4-oxo-1,4-dihydropyridazine-3-carboxamide] |
| 49 nM | – | Nc1nccc(Oc2cnc(NC(=O)c3nn(C4CC4)cc(-c4ccc(F)cc4)c3=O)nc2)c1Cl [Compound 18, N-(5-((2-amino-3-chloropyridin-4-yl)oxy)pyrimidin-2-yl)-5-(4-fluorophenyl)-1-cyclopropyl-4-oxo-1,4-dihydropyridazine-3-carboxamide] |
| 23 nM | 53 nM | CC(C)n1cc(-c2ccc(F)cc2)c(=O)c(C(=O)Nc2ncc(Oc3ccnc(N)c3Cl)cn2)n1 [Compound 12, N-(5-((2-amino-3-chloropyridin-4-yl)oxy)pyrimidin-2-yl)-5-(4-fluorophenyl)-1-isopropyl-4-oxo-1,4-dihydropyridazine-3-carboxamide] |
| 23 nM | 26 nM | Cn1cc(-c2ccc(F)cc2)c(=O)c(C(=O)Nc2ccc(Oc3ccnc(N)c3Cl)cn2)n1 [Compound 33, N-(5-((2-amino-3-chloropyridin-4-yl)oxy)pyridin-2-yl)-5-(4-fluorophenyl)-1-methyl-4-oxo-1,4-dihydropyridazine-3-carboxamide] |
| 22 nM | – | C=CCn1cc(-c2ccc(F)cc2)c(=O)c(C(=O)Nc2ncc(Oc3ccnc(N)c3Cl)cn2)n1 [Compound 37] |
